Reference: ChEMBL document CHEMBL6153041, “Discovery of High-Affinity SMARCA2/4 Bromodomain Ligands and Development of Potent and Exceptionally Selective SMARCA2 PROTAC Degraders” (J Med Chem, 2025)
Values belong to the compound of their own block, whether it stands above or below them.

Assays:
[1] = target: T1, von Hippel-Lindau disease tumor suppressor/SWI/SNF-related matrix-associated actin-dependent regulator of chromatin subfamily A member 2 (Homo sapiens, UniProt P51531+P40337); assay: PROTAC activity at VHL1/SMARCA2 in human NCI-H1792 cells assessed as degradation measured after 24 hrs incubation by Western blot analysis; assay type: cell-based
[2] = target: T2, von Hippel-Lindau disease tumor suppressor/SWI/SNF-related matrix-associated actin-dependent regulator of chromatin subfamily A member 4 (Homo sapiens, UniProt P51532+P40337); assay: PROTAC activity at VHL1/SMARCA4 in human genetically modified Hela cells assessed as degradation measured after 48 hrs incubation by Nano-Glo HiBiT Lytic Detection Assay; assay type: cell-based
[3] = target: T2, von Hippel-Lindau disease tumor suppressor/SWI/SNF-related matrix-associated actin-dependent regulator of chromatin subfamily A member 4; assay: PROTAC activity at VHL1/SMARCA4 in human genetically modified Hela cells assessed as maximal degradation measured after 24 hrs incubation by Nano-Glo HiBiT Lytic Detection Assay relative to control; assay type: cell-based
Target sequence in this assay (P40337 whole entry, looked up): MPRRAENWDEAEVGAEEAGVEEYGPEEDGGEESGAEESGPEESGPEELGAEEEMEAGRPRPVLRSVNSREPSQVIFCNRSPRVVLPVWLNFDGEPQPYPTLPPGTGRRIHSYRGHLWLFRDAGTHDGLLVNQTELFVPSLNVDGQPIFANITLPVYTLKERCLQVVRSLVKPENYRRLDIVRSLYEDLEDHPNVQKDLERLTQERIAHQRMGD
Target sequence in this assay (P51532 whole entry, looked up): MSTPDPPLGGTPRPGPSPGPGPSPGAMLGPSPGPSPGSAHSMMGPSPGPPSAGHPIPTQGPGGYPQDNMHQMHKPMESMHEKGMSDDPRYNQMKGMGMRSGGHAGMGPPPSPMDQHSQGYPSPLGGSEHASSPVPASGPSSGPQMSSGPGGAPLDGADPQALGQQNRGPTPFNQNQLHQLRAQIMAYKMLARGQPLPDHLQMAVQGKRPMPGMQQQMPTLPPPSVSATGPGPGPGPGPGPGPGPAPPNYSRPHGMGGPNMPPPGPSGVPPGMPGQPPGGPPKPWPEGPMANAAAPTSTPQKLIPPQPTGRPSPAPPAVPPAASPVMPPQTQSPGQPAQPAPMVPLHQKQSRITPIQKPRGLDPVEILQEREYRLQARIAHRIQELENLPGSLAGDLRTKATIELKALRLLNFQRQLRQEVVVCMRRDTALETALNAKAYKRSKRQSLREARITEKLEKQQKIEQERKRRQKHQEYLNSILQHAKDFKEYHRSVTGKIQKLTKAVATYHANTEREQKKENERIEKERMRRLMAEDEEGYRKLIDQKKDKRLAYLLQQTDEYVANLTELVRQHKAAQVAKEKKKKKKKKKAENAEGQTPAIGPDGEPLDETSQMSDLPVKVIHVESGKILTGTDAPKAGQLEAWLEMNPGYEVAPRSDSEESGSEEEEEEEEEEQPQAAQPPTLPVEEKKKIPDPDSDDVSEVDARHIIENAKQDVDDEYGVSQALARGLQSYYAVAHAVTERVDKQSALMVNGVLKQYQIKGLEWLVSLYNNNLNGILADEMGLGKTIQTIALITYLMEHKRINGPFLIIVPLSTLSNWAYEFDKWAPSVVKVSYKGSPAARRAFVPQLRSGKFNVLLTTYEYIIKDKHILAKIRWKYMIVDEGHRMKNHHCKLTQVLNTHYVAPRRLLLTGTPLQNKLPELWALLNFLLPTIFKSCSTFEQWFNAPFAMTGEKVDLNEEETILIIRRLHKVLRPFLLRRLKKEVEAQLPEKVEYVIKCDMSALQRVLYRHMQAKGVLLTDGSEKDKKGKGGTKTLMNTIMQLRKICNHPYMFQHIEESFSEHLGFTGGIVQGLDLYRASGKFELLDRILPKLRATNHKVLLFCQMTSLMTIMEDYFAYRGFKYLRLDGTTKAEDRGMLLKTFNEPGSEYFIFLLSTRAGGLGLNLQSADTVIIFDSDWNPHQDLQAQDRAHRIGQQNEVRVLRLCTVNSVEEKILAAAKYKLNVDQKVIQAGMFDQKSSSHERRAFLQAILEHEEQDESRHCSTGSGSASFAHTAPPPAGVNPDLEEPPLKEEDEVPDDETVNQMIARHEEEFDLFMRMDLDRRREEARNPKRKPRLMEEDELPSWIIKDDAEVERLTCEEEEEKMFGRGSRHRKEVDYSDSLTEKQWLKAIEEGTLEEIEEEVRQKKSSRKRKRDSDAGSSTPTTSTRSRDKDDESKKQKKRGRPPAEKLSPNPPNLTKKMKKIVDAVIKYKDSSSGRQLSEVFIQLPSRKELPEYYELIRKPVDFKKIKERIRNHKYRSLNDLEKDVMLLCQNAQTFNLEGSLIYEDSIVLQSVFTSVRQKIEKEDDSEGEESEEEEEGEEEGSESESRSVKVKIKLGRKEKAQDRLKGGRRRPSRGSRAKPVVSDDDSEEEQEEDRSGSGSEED

NCI-H1792 [4] = assay: Anticancer activity against human NCI-H1792 cells harbouring wild type SMARCA4 assessed as inhibition of cell growth measured after 7 days incubation by WST-8 assay; assay type: functional; details: NCI-H1792, 168 h, time 7 day
[5] = target: T2, von Hippel-Lindau disease tumor suppressor/SWI/SNF-related matrix-associated actin-dependent regulator of chromatin subfamily A member 4; assay: PROTAC activity at VHL1/SMARCA4 in human genetically modified Hela cells assessed as degradation measured after 4 hrs incubation by Nano-Glo HiBiT Lytic Detection Assay; assay type: cell-based
[6] = target: T2, von Hippel-Lindau disease tumor suppressor/SWI/SNF-related matrix-associated actin-dependent regulator of chromatin subfamily A member 4; assay: PROTAC activity at VHL1/SMARCA4 mutant in human SK-MEL-5 cells assessed as degradation measured after 24 hrs incubation by Western blot analysis; assay type: cell-based
[7] = target: T2, von Hippel-Lindau disease tumor suppressor/SWI/SNF-related matrix-associated actin-dependent regulator of chromatin subfamily A member 4; assay: PROTAC activity at VHL1/SMARCA4 in human genetically modified Hela cells assessed as degradation measured after 8 hrs incubation by Nano-Glo HiBiT Lytic Detection Assay; assay type: cell-based
SK-MEL-5 [8] = assay: Anticancer activity against SMARCA4 deficient human SK-MEL-5 cells assessed as maximal inhibition of cell growth measured after 7 days incubation by WST-8 assay relative to control; assay type: functional; details: time 7 day
[9] = target: T2, von Hippel-Lindau disease tumor suppressor/SWI/SNF-related matrix-associated actin-dependent regulator of chromatin subfamily A member 4; assay: PROTAC activity at VHL1/SMARCA4 mutant in human NCI-H838 cells assessed as degradation measured after 24 hrs incubation by Western blot analysis; assay type: cell-based
[10] = target: T2, von Hippel-Lindau disease tumor suppressor/SWI/SNF-related matrix-associated actin-dependent regulator of chromatin subfamily A member 4; assay: PROTAC activity at VHL1/SMARCA4 in human genetically modified Hela cells assessed as maximal degradation measured after 4 hrs incubation by Nano-Glo HiBiT Lytic Detection Assay relative to control; assay type: cell-based
Target sequence in this assay (P40337 whole entry, looked up): as the sequence (P40337 whole entry, looked up) above
Target sequence in this assay (P51532 whole entry, looked up): as the sequence (P51532 whole entry, looked up) above

[11] = target: T1, von Hippel-Lindau disease tumor suppressor/SWI/SNF-related matrix-associated actin-dependent regulator of chromatin subfamily A member 2; assay: PROTAC activity at VHL1/SMARCA2 in human genetically modified Hela cells assessed as maximal degradation measured after 48 hrs incubation by Nano-Glo HiBiT Lytic Detection Assay relative to control; assay type: cell-based
Target sequence in this assay (P40337 whole entry, looked up): as the sequence (P40337 whole entry, looked up) above
Target sequence in this assay (P51531 whole entry, looked up): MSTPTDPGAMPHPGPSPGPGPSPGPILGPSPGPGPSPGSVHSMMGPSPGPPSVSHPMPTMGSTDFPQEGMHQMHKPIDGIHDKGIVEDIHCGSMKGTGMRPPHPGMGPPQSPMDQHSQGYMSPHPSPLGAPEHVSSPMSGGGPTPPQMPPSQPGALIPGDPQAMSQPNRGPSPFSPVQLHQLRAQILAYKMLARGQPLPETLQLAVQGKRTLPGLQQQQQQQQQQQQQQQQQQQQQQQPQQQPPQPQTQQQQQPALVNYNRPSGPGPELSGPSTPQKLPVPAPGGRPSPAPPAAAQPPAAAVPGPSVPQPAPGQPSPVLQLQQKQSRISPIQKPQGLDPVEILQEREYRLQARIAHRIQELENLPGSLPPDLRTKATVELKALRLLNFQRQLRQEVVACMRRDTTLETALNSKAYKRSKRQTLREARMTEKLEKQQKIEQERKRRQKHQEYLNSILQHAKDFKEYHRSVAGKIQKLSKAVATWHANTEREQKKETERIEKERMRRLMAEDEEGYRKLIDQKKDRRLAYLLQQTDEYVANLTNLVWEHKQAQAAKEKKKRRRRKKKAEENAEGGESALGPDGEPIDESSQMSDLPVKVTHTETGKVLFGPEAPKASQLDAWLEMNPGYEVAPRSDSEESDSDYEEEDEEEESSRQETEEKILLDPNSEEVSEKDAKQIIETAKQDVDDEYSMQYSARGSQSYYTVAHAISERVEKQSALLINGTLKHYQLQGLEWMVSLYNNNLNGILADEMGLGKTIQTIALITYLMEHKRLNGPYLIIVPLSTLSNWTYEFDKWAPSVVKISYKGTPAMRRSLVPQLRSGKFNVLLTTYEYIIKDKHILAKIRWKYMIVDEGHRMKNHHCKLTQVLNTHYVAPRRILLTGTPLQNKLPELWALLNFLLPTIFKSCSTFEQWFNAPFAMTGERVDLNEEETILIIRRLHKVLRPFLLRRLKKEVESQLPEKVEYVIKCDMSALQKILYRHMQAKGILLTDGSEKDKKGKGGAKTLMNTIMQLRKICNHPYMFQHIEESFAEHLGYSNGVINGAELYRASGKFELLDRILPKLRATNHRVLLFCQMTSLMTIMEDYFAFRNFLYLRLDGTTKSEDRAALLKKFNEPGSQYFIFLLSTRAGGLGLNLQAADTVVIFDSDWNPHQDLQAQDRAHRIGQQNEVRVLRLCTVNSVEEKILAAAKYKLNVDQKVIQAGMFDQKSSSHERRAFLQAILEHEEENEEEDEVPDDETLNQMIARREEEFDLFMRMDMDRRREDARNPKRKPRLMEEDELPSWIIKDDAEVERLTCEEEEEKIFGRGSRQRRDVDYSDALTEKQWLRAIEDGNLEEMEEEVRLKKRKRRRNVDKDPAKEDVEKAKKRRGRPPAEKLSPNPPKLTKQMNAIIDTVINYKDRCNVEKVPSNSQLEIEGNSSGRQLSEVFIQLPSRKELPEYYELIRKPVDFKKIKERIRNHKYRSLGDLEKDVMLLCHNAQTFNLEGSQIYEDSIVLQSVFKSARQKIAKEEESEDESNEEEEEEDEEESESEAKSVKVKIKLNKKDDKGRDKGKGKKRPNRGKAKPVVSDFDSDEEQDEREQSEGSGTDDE

[12] = target: T1, von Hippel-Lindau disease tumor suppressor/SWI/SNF-related matrix-associated actin-dependent regulator of chromatin subfamily A member 2; assay: PROTAC activity at VHL1/SMARCA2 in human NCI-H1792 cells assessed as maximal degradation measured after 24 hrs incubation by Western blot analysis relative to control; assay type: cell-based
Target sequence in this assay (P40337 whole entry, looked up): as the sequence (P40337 whole entry, looked up) above
Target sequence in this assay (P51531 whole entry, looked up): as the sequence (P51531 whole entry, looked up) above

[13] = target: T2, von Hippel-Lindau disease tumor suppressor/SWI/SNF-related matrix-associated actin-dependent regulator of chromatin subfamily A member 4; assay: PROTAC activity at VHL1/SMARCA4 in human genetically modified Hela cells assessed as maximal degradation measured after 8 hrs incubation by Nano-Glo HiBiT Lytic Detection Assay relative to control; assay type: cell-based
Target sequence in this assay (P40337 whole entry, looked up): as the sequence (P40337 whole entry, looked up) above
Target sequence in this assay (P51532 whole entry, looked up): as the sequence (P51532 whole entry, looked up) above

[14] = target: T1, von Hippel-Lindau disease tumor suppressor/SWI/SNF-related matrix-associated actin-dependent regulator of chromatin subfamily A member 2; assay: PROTAC activity at VHL1/SMARCA2 in human genetically modified Hela cells assessed as degradation measured after 4 hrs incubation by Nano-Glo HiBiT Lytic Detection Assay; assay type: cell-based
SK-MEL-5 [15] = assay: Anticancer activity against SMARCA4 deficient human SK-MEL-5 cells assessed as inhibition of cell growth measured after 7 days incubation by WST-8 assay; assay type: functional; details: SK-MEL-5, 168 h, time 7 day
[16] = test system: von Hippel-Lindau disease tumor suppressor/SWI/SNF-related matrix-associated actin-dependent regulator of chromatin subfamily A member 4 (Homo sapiens), P51532+P40337 [UNDEFINED MUTATION]; assay: PROTAC activity at VHL1/SMARCA4 mutant in human SK-MEL-5 cells assessed as maximal degradation measured after 24 hrs incubation by Western blot analysis relative to control; assay type: cell-based
[17] = target: T1, von Hippel-Lindau disease tumor suppressor/SWI/SNF-related matrix-associated actin-dependent regulator of chromatin subfamily A member 2; assay: PROTAC activity at VHL1/SMARCA2 in human genetically modified Hela cells assessed as degradation measured after 48 hrs incubation by Nano-Glo HiBiT Lytic Detection Assay; assay type: cell-based
SK-MEL-28 [18] = assay: Anticancer activity against human SK-MEL-28 cells harbouring wild type SMARCA4 assessed as maximal inhibition of cell growth measured after 7 days incubation by WST-8 assay relative to control; assay type: functional; details: time 7 day
[19] = target: T1, von Hippel-Lindau disease tumor suppressor/SWI/SNF-related matrix-associated actin-dependent regulator of chromatin subfamily A member 2; assay: PROTAC activity at VHL1/SMARCA2 in human genetically modified Hela cells assessed as maximal degradation measured after 8 hrs incubation by Nano-Glo HiBiT Lytic Detection Assay relative to control; assay type: cell-based
Target sequence in this assay (P40337 whole entry, looked up): as the sequence (P40337 whole entry, looked up) above
Target sequence in this assay (P51531 whole entry, looked up): as the sequence (P51531 whole entry, looked up) above

[20] = target: T2, von Hippel-Lindau disease tumor suppressor/SWI/SNF-related matrix-associated actin-dependent regulator of chromatin subfamily A member 4; assay: PROTAC activity at VHL1/SMARCA4 in human genetically modified Hela cells assessed as maximal degradation measured after 48 hrs incubation by Nano-Glo HiBiT Lytic Detection Assay relative to control; assay type: cell-based
Target sequence in this assay (P40337 whole entry, looked up): as the sequence (P40337 whole entry, looked up) above
Target sequence in this assay (P51532 whole entry, looked up): as the sequence (P51532 whole entry, looked up) above

[21] = target: T1, von Hippel-Lindau disease tumor suppressor/SWI/SNF-related matrix-associated actin-dependent regulator of chromatin subfamily A member 2; assay: PROTAC activity at VHL1/SMARCA2 in human genetically modified Hela cells assessed as degradation measured after 8 hrs incubation by Nano-Glo HiBiT Lytic Detection Assay; assay type: cell-based
[22] = test system: von Hippel-Lindau disease tumor suppressor/SWI/SNF-related matrix-associated actin-dependent regulator of chromatin subfamily A member 4 (Homo sapiens), P51532+P40337 [UNDEFINED MUTATION]; assay: PROTAC activity at VHL1/SMARCA4 mutant in human NCI-H838 cells assessed as maximal degradation measured after 24 hrs incubation by Western blot analysis relative to control; assay type: cell-based
[23] = target: T2, von Hippel-Lindau disease tumor suppressor/SWI/SNF-related matrix-associated actin-dependent regulator of chromatin subfamily A member 4; assay: PROTAC activity at VHL1/SMARCA4 in human NCI-H1792 cells assessed as maximal degradation measured after 24 hrs incubation by Western blot analysis relative to control; assay type: cell-based
Target sequence in this assay (P40337 whole entry, looked up): as the sequence (P40337 whole entry, looked up) above
Target sequence in this assay (P51532 whole entry, looked up): as the sequence (P51532 whole entry, looked up) above

[24] = target: T1, von Hippel-Lindau disease tumor suppressor/SWI/SNF-related matrix-associated actin-dependent regulator of chromatin subfamily A member 2; assay: PROTAC activity at VHL1/SMARCA2 in human genetically modified Hela cells assessed as maximal degradation measured after 24 hrs incubation by Nano-Glo HiBiT Lytic Detection Assay relative to control; assay type: cell-based
Target sequence in this assay (P40337 whole entry, looked up): as the sequence (P40337 whole entry, looked up) above
Target sequence in this assay (P51531 whole entry, looked up): as the sequence (P51531 whole entry, looked up) above

HeLa = assay: Selectivity ratio, ratio of DC50 for VHL1/SMARCA4 in human genetically modified Hela cells to VHL1/SMARCA2 in human genetically modified Hela cells; assay type: cell-based
[25] = target: T2, von Hippel-Lindau disease tumor suppressor/SWI/SNF-related matrix-associated actin-dependent regulator of chromatin subfamily A member 4; assay: PROTAC activity at VHL1/SMARCA4 in human genetically modified Hela cells assessed as degradation measured after 24 hrs incubation by Nano-Glo HiBiT Lytic Detection Assay; assay type: cell-based
[26] = target: T2, von Hippel-Lindau disease tumor suppressor/SWI/SNF-related matrix-associated actin-dependent regulator of chromatin subfamily A member 4; assay: PROTAC activity at VHL1/SMARCA4 in human NCI-H1792 cells assessed as degradation measured after 24 hrs incubation by Western blot analysis; assay type: cell-based
SK-MEL-28 [27] = assay: Anticancer activity against human SK-MEL-28 cells harbouring wild type SMARCA4 assessed as inhibition of cell growth measured after 7 days incubation by WST-8 assay; assay type: functional; details: SK-MEL-28, 168 h, time 7 day
[28] = target: T1, von Hippel-Lindau disease tumor suppressor/SWI/SNF-related matrix-associated actin-dependent regulator of chromatin subfamily A member 2; assay: PROTAC activity at VHL1/SMARCA2 in human genetically modified Hela cells assessed as maximal degradation measured after 4 hrs incubation by Nano-Glo HiBiT Lytic Detection Assay relative to control; assay type: cell-based
Target sequence in this assay (P40337 whole entry, looked up): as the sequence (P40337 whole entry, looked up) above
Target sequence in this assay (P51531 whole entry, looked up): as the sequence (P51531 whole entry, looked up) above

NCI-H1792 [29] = assay: Anticancer activity against human NCI-H1792 cells harbouring wild type SMARCA4 assessed as maximal inhibition of cell growth measured after 7 days incubation by WST-8 assay relative to control; assay type: functional; details: time 7 day
[30] = Anticancer activity against SMARCA4 deficient human NCI-H838 cells assessed as maximal inhibition of cell growth measured after 7 days incubation by WST-8 assay relative to control; assay type: functional; details: time 7 day
[31] = Anticancer activity against SMARCA4 deficient human NCI-H838 cells assessed as inhibition of cell growth measured after 7 days incubation by WST-8 assay; assay type: functional; details: NCI-H838, 168 h, time 7 day
[32] = target: SWI/SNF-related matrix-associated actin-dependent regulator of chromatin subfamily A member 4 (Homo sapiens, UniProt P51532); assay: Binding affinity to SMARCA4 (unknown origin) assessed as dissociation constant

SMILES: Cc1ncsc1-c1ccc([C@H](C)NC(=O)[C@@H]2C[C@@H](O)CN2C(=O)[C@@H](NC(=O)[C@H]2CC[C@H](CN3CCC(c4ccc5c(c4)-n4c(nc(=O)c6c(Cl)cccc64)C54CCCCC4)CC3)CC2)C(C)(C)C)cc1
DC50 [1]: 54.2 nM | DC50 [2]: > 1000 nM | Emax [3]: 20% | GI50 (NCI-H1792 [4]): > 1000 nM | DC50 [5]: > 1000 nM | DC50 [6]: 81.1 nM | DC50 [7]: > 1000 nM | Imax (SK-MEL-5 [8]): 93% | DC50 [9]: 76.2 nM | Emax [10]: < 10% | Emax [11]: 91% | Emax [12]: 87% | Emax [13]: < 10% | DC50 [14]: 142 nM | GI50 (SK-MEL-5 [15]): > 22.3 nM | Emax [16]: 87% | DC50 [17]: 44 nM | Imax (SK-MEL-28 [18]): 0% | Emax [19]: 85% | Emax [20]: < 10% | DC50 [21]: 89 nM | Emax [22]: < 89% | Emax [23]: < 30% | Emax [24]: 89% | Ratio (HeLa): > 1250 | DC50 [25]: > 10000 nM | DC50 [26]: > 1000 nM | GI50 (SK-MEL-28 [27]): > 1000 nM | Emax [28]: 76% | Imax (NCI-H1792 [29]): 0% | Imax [30]: 79% | GI50 [31]: 142 nM

Kd [32]: 12.8 nM
SMILES: Cn1cc(-c2cc(-c3ccccc3O)nnc2N)cn1
